According to patent US5618812A, “Benzodiazepine derivatives” (Merck Sharp & Dohme, Ltd., priority 1992, dated 1997):
Where a name gives a salt, the structure may show the parent alone.

Columns and labels:
CCK-A = target: T1, CCK-A (Rattus norvegicus, UniProt P30551); assay: biochemical; format: binding; details: rat pancreas (CCK-A), 125I-CCK; read-out: CCK RECEPTOR BINDING RESULTS IC50 125I-CCK Pancreas
T1 sequence (P30551 1-444): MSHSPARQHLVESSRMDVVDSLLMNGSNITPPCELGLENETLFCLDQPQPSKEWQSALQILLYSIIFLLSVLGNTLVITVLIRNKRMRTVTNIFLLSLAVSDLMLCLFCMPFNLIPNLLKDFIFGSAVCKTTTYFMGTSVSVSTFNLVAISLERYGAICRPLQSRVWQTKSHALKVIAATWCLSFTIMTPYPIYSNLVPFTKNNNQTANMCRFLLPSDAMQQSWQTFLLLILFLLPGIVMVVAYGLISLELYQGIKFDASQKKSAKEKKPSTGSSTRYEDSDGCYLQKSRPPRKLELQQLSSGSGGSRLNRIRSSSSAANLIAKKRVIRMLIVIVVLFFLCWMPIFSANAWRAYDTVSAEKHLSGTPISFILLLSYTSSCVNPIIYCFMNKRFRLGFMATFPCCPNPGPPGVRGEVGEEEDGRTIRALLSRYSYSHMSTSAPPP
Method: (§1) The CCK-A and CCK-B antagonising activity of the compounds described herein was evaluated using the assays described in published European patent application no. 0514133. The method essentially involves determining the concentration of the test compound required to displace 50% of the specific ^125 I-CCK from rat pancreas (CCK-A) or guinea pig brain (CCK-B).

CCK-B = target: T2, CCK-B (Cavia porcellus, UniProt H0VZC5); assay: displacement of specific 125I-CCK from guinea pig brain (CCK-B receptor binding); details: read-out: CCK RECEPTOR BINDING RESULTS IC50 125I-CCK Brain
T2 construct: guinea pig brain (CCK-B); from tissue; host or cells: guinea pig brain
T2 sequence (H0VZC5 1-426): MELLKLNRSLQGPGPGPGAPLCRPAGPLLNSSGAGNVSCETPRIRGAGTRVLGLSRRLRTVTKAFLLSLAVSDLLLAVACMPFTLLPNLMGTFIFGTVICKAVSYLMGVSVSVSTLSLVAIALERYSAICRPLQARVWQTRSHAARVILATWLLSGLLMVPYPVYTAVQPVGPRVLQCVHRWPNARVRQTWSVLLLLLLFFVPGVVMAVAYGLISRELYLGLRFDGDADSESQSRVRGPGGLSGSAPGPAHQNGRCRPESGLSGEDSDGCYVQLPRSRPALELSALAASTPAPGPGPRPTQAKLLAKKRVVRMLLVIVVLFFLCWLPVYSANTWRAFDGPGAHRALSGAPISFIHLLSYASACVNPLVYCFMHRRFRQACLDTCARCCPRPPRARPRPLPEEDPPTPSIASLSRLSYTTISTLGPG
Method: as §1, with “(CCK-B). The data in Table 1 were obtained for compounds of the Examples.” for “(CCK-B).”

| SMILES | IC50 (CCK-A) [nM] | IC50 (CCK-B) [nM] |
| --- | --- | --- |
| CN1C(=O)C(NC(=O)Nc2ccc3c(c2)CCC3)N=C(N(C)C2CCCCCC2)c2ccccc21 (racemic) [Example 69, N-[3(R,S)-5-(N-Cycloheptyl-N-methylamino)-2,3-dihydro-1-methyl-2-oxo-1H-1,4-benzodiazepin-3-yl]-N'-[5-indanyl]urea] | 469 | 2.82 |
| Cc1cccc(NC(=O)NC2N=C(N(C)Cc3ccccc3)c3ccccc3N(C)C2=O)c1 (racemic) [Example 72, N-[3(R,S)-5-(N-Benzyl-N-methylamino)-2,3-dihydro-1-methyl-2-oxo-1H-1,4-benzodiazepin-3-yl]-N'-[3-methylphenyl]urea] | 176 | 10.3 |
| CCCN(CCC)C1=NC(NC(=O)Nc2cccc(C)c2)C(=O)N(C)c2ccccc21 (racemic) [Example 75, N-[3(R,S)-5-(N,N-Di-^npropylamino)-2,3-dihydro-1-methyl-2-oxo-1H-1,4-benzodiazepin-3-yl]-N-[3-methylphenyl]urea] | 314 | 46.9 |
| CCCN(C1=NC(NC(=O)Nc2cccc(C)c2)C(=O)N(C)c2ccccc21)C1CCCCC1 (racemic) [Example 79, N-[3(R,S)-5-(N-Cyclohexyl-N-propylamino)-2,3-dihydro-1-methyl-2-oxo-1H-benzodiazepin-3-yl]-N'-[3-methylphenyl]urea] | 1700 | 13.4 |
| Cc1cccc(NC(=O)NC2N=C(N(Cc3ccccc3)C3CCCCC3)c3ccccc3N(C)C2=O)c1 (racemic) [Example 80, N-[3(R,S)-5-(N-Benzyl-N-cyclohexylamino)-2,3-dihydro-1-methyl-2-oxo-1H-1,4-benzodiazepin-3-yl]-N'-[3-methylphenyl]urea] | 1140 | 32.4 |
| Cc1cccc(NC(=O)NC2N=C(NC3CCCCC3)c3ccccc3N(C)C2=O)c1 (racemic) [Example 81, N-[3(R,S)-5(N-Cyclohexylamino)-2,3-dihydro-1-methyl-2-oxo-1H-1,4-benzodiazepin-3-yl]-N'-[3-methylphenyl]urea] | 14.9 | 23.2 |
| CN1C(=O)C(NC(=O)Nc2ccc3c(c2)CCC3)N=C(N(C)C2CCCCC2)c2ccccc21 (racemic) [Example 82, N-[3(R,S)-5-(N-Cyclohexyl-N-methylamino)-2,3-dihydro-1-methyl-2-oxo-1H-1,4-benzodiazepin-3-yl]-N'-[5-indanyl]urea] | 815 | 0.47 |
| Cc1cccc(NC(=O)NC2N=C(NCCN(C)C)c3ccccc3N(C)C2=O)c1 (racemic) [Example 84, N-[3(R,S)-2,3-Dihydro-5-(2-(N,N-dimethylamino)ethylamino)-1-methyl-2-oxo-1H-1,4-benzodiazepin-3-yl]-N'-[3-methylphenyl]urea dihydrochloride] | > 3000 | 1900 |
| Cc1cccc(NC(=O)NC2N=C(N(C)CCN3CCOCC3)c3ccccc3N(C)C2=O)c1 (racemic) [Example 85, N-[3(R,S)-2,3-Dihydro-5-(N-(2-N-morpholinoethyl)-N-methylamino)-1-methyl-2-oxo-1H-1,4-benzodiazepin-3-yl]-N'-[3-methylphenyl]urea] | > 3000 | 785 |
| Cc1cncc(NC(=O)NC2N=C(N(C)C3CCCCCC3)c3ccccc3N(C)C2=O)c1 (racemic) [Example 86, N-[3(R,S)-5-(N-Cycloheptyl)-N-methylamino)-2,3-dihydro-1-methyl-2-oxo-1H-1,4-benzodiazepin-3-yl]-N'-[3-(5-methylpyridine)]urea] | 831 | 31.3 |
| CN1C(=O)C(NC(=O)c2cc3ccccc3[nH]2)N=C(N2CC3CCC(CC3)C2)c2ccccc21 (racemic) [Example 87, 3(R,S)-N-(5-(3-Azabicyclo[3,2,2]nonan-3-yl)-2,3-dihydro-1-methyl-2-oxo-1H-1,4-benzodiazepin-3-yl)-1H-indole-2-carboxamide] | 0.87 | 509 |
| CC(C)CN1C(=O)C(NC(=O)c2cc3ccccc3[nH]2)N=C(N2CCCCCC2)c2ccccc21 (racemic) [Example 90, 3(R,S)-N-(2,3-Dihydro-5-(homopiperidin-1-yl)-1-(2-methylpropyl)-2-oxo-1H-1,4-benzodiazepin-3-yl)-1H-indole-2-carboxamide] | 8.7 | 225 |
| CC(C)CN1C(=O)C(NC(=O)Cc2c[nH]c3ccccc23)N=C(N2CCCCCC2)c2ccccc21 (racemic) [Example 94, 3(R,S)-N-(2,3-Dihydro-5-(homopiperidin-1-yl)-1-(2-methylpropyl)-2-oxo-1H-1,4-benzodiazepin-3-yl)-1H-indole-3-acetamide] | 646 | 119 |
| CC(C)CN1C(=O)C(NC(=O)c2cc3ccccc3[nH]2)N=C(N2CCC(C)CC2)c2ccccc21 (racemic) [Example 95, 3(R,S)-N-(2,3-Dihydro-5-(4-methylpiperidin-1-yl)-1-(2-methylpropyl)-2-oxo-1H-1,4-benzodiazepin-3-yl)-1H-indole-2-carboxamide] | 11.6 | 161 |

Results, then the compound that gave them:

| IC50 (CCK-A) [nM] | IC50 (CCK-B) [nM] | SMILES |
| --- | --- | --- |
| 186 | 2.56 | CCCN1C(=O)C(NC(=O)Nc2cccc(C)c2)N=C(N(C)C2CCCCC2)c2ccccc21 (racemic) [Example 60, N-[3(R,S)-5-(N-Cyclohexyl-N-methylamino)-2,3-dihydro-2-oxo-1-propyl-1H-1,4-benzodiazepin-3-yl]-N'-[3-methylphenyl]urea] |
| 304 | 1.36 | Cc1cccc(NC(=O)NC2N=C(N(C)C3CCCCC3)c3ccccc3N(C)C2=O)c1 (racemic) [Example 63, N-[3(R,S)-5-(N-Cyclohexyl-N-methylamino)-2,3-dihydro-1-methyl-2-oxo-1H-1,4-benzodiazepin-3-yl]-N'-[3-methylphenyl]urea] |
| 83.6 | 0.79 | Cc1cccc(NC(=O)NC2N=C(N(C)C3CCCCCC3)c3ccccc3N(C)C2=O)c1 (racemic) [Example 66, N-[3(R,S)-5-(N-Cycloheptyl-N-methylamino)-2,3-dihydro-1-methyl-2-oxo-1H-1,4-benzodiazepin-3-yl]-N'-[3-methylphenyl]urea] |
| > 3000 | 1410 | Cc1cccc(NC(=O)NC2N=C(N(C)C3CCN(C)CC3)c3ccccc3N(C)C2=O)c1 (racemic) [Example 73, N-[3(R,S)-5-(N-(4-N-Methylpiperidinyl)-N-methylamino)-2,3-dihydro-1-methyl-2-oxo-1H-1,4-benzodiazepin-3-yl]-N'-[3-methylphenyl]urea] |
| 192 | 7.3 | Cc1cccc(NC(=O)NC2N=C(N(C)CC3CCCCC3)c3ccccc3N(C)C2=O)c1 (racemic) [Example 74] |
| 760 | 3.12 | CCN(C1=NC(NC(=O)Nc2cccc(C)c2)C(=O)N(C)c2ccccc21)C1CCCC1 (racemic) [Example 76, N-[3(R,S)-5-(N-Cyclopentyl-N-ethylamino)-2,3-dihydro-1-methyl-2-oxo-1H-1,4-benzodiazepin-3-yl]-N'-[3-methylphenyl]urea] |
| 135 | 81.1 | Cc1cccc(NC(=O)NC2N=C(N(C)C3CCC(C)(C)CC3)c3ccccc3N(C)C2=O)c1 (racemic) [Example 77, N-[3(R,S)-5-(N-(4,4-Dimethylcyclohexyl)-N-methylamino)-2,3-dihydro-1-methyl-2-oxo-1H-1,4-benzodiazepin-3-yl]-N'-[3-methylphenyl]urea] |
| 891 | 4.5 | CCN(C1=NC(NC(=O)Nc2cccc(C)c2)C(=O)N(C)c2ccccc21)C1CCCCC1 (racemic) [Example 78, N-[3(R,S)-5-(N-Cyclohexyl-N-ethylamino)-2,3-dihydro-1-methyl-2-oxo-1H-1,4-benzodiazepin-3-yl]-N'-3-methylphenyl]urea] |
| 283 | 3.67 | Cc1cccc(NC(=O)NC2N=C(N(C)C3CCCCCCC3)c3ccccc3N(C)C2=O)c1 (racemic) [Example 83, N-[3(R,S)-5-(N-Cyclooctyl-N-methylamino)-2,3-dihydro-1-methyl-2-oxo-1H-1,4-benzodiazepin-3-yl]-N'-[3-methylphenyl]urea] |
